Measurements from patent US20020169364A1, “Brainstem and limbic disorder (BALD)” (priority 2000, published 2002).
Where a name gives a salt, the structure may show the parent alone.

Test: Clinical use in treatment protocol of the BALD syndrome
Format: in vivo
Details: for clinical outcome in treatment of the BALD syndrome: patients with BALD syndrome, core treatment steps (calcium channel blocker, anti-viral/anti-fungal, chelating agent); for clinical outcome, pulmonary problems: BALD patients with pulmonary problems (restrictive lung disease)
Description: The treatment protocol consists of ruling in or out of the BALD syndrome then treatment of the core pathology of the syndrome if present. This consists of treatment of the most acute aspects of the BALD syndrome followed by more conservative treatments of the more chronic symptoms or pathology. If diagnosis progresses to brainstem or other neuron damage with significant inflammation the treatment consists of immediate inflammation reduction and stabilization of the immune system. This is followed by conservative treatments as indicated in the diagnosis of the disorder.
The treatment proceeds in steps.
Step one in the treatment of the disorder would start with drugs that are known to block calcium intake channels of neurons. […] The usual dosage can be 30 mg. three times daily more or less in the clinical judgment of the physician.
Step three in the treatment of a BALD syndrome involving viral infection to any degree is to administer anti-viral and anti-fungal drugs to the patient. […] This is a synthetic acyclic purine nucleoside analog.
This Is a synthetic broad spectrum bis-trazole antifungal agent. […] This is a synthetic trazole antifungal agent with the chemical name of itraconazole.
Step seven is to administer a chelating agent to the patient to eliminate toxic heavy metals from the system.
Azulfadine should be started for patients with irritable bowel syndrome.

## OC(Cn1cncn1)(Cn1cncn1)c1ccc(F)cc1F [difulcan, fluconazole]
  clinical outcome in treatment of the BALD syndrome: good clinical results

## O=C1CN=C(c2ccccc2Cl)c2cc([N+](=O)[O-])ccc2N1 [Klonapin, clonazepam]
BALD patients, anti-anxiety drug
  clinical outcome, anti-anxiety: clinically successful

## CC(C)(O)c1ccccc1CC[C@@H](SCC1(CC(=O)O)CC1)c1cccc(/C=C/c2ccc3ccc(Cl)cc3n2)c1 [Singulair, sodium montelukast]
  clinical outcome, pulmonary problems: Clinical success

## COc1cc(C(=O)NS(=O)(=O)c2ccccc2C)ccc1Cc1cn(C)c2ccc(NC(=O)OC3CCCC3)cc12 [Accolate, zafirlukast]
  clinical outcome, pulmonary problems: clinically successful

## Nc1nc2c(ncn2COCCO)c(=O)[nH]1 [Acyclovir, acycloguanosine]
  clinical outcome in treatment of the BALD syndrome: Clinical success

## O=C([O-])CN(CCN(CC(=O)[O-])CC(=O)O)CC(=O)O.[Na+].[Na+] [EDTA, edate disodium]
  clinical outcome in treatment of the BALD syndrome: Clinical success

## O=C(O)c1cc(/N=N/c2ccc(S(=O)(=O)Nc3ccccn3)cc2)ccc1O [Azulfadine, sulfasalazine]
BALD patients with irritable bowel syndrome
  clinical outcome, irritable bowel syndrome: successful drug in clinical usage

## CC(C)[C@H](N)C(=O)OCCOCn1cnc2c(=O)[nH]c(N)nc21 [Valtrex, valacyclovir hydrochloride]
  clinical outcome in treatment of the BALD syndrome: clinically successful
